What was measured:
[1] = target: T1, Human σ1 receptor (Homo sapiens, UniProt Q99720); test: Human σ1 receptor radioligand assay ([3H](+)-pentazocine binding, transfected HEK-293 membranes); details: binding to σ1 receptor expressed as Ki; + also covers inhibition between 1% and 50%; read-out: σ-1 binding
T1 construct: expressed in transfected cells; host or cells: HEK-293
Description: Human σ1 Receptor Radioligand Assay
Transfected HEK-293 membranes (7 μg) were incubated with 5 nM of [^3H](+)-pentazocine in assay buffer containing Tris-HCl 50 mM at pH 8. NBS (non-specific binding) was measured by adding 10 μM haloperidol. The binding of the test compound was measured at either one concentration (% inhibition at 1 or 10 μM) or five different concentrations to determine affinity values (Ki). Plates were incubated at 37° C. for 120 minutes. After the incubation period, the reaction mix was then transferred to MultiScreen HTS, FC plates (Millipore), filtered and plates were washed 3 times with ice-cold 10 mM Tris-HCL (pH7.4). Filters were dried and counted at approximately 40% efficiency in a MicroBeta scintillation counter (Perkin-Elmer) using EcoScint liquid scintillation cocktail.

[2] = target: Human α2δ-1 subunit of Cav2.2 calcium channel (Homo sapiens, UniProt P54289); test: Human α2δ-1 subunit of Cav2.2 calcium channel assay ([3H]-gabapentin binding); details: binding to the α2δ-1 subunit of voltage-gated calcium channels expressed as Ki; + also covers inhibition between 1% and 50%
Description: Biological Activity Pharmacological Study Human α2δ-1 Subunit of Cav2.2 Calcium Channel Assay
Human α2δ-1 enriched membranes (2.5 μg) were incubated with 15 nM of radiolabeled [^3H]-Gabapentin in assay buffer containing Hepes-KOH 10 mM, pH 7.4. NSB (non specific binding) was measured by adding 10 μM pregabalin. The binding of the test compound was measured at either one concentration (% inhibition at 1 or 10 μM) or five different concentrations to determine affinity values (Ki). After 60 min incubation at 27° C., binding reaction was terminated by filtering through Multiscreen GF/C (Millipore) presoaked in 0.5% polyethyleneimine in Vacuum Manifold Station, followed by 3 washes with ice-cold filtration buffer containing 50 mM Tris-HCl, pH 7.4. Filter plates were dried at 60° C. for 1 h and 30 μL of scintillation cocktail were added to each well before radioactivity reading. Readings were performed in a Trilux 1450 Microbeta radioactive counter (Perkin Elmer).

Human α2δ-1 subunit of Cav2.2 calcium channel, sequence (P54289 25-1103): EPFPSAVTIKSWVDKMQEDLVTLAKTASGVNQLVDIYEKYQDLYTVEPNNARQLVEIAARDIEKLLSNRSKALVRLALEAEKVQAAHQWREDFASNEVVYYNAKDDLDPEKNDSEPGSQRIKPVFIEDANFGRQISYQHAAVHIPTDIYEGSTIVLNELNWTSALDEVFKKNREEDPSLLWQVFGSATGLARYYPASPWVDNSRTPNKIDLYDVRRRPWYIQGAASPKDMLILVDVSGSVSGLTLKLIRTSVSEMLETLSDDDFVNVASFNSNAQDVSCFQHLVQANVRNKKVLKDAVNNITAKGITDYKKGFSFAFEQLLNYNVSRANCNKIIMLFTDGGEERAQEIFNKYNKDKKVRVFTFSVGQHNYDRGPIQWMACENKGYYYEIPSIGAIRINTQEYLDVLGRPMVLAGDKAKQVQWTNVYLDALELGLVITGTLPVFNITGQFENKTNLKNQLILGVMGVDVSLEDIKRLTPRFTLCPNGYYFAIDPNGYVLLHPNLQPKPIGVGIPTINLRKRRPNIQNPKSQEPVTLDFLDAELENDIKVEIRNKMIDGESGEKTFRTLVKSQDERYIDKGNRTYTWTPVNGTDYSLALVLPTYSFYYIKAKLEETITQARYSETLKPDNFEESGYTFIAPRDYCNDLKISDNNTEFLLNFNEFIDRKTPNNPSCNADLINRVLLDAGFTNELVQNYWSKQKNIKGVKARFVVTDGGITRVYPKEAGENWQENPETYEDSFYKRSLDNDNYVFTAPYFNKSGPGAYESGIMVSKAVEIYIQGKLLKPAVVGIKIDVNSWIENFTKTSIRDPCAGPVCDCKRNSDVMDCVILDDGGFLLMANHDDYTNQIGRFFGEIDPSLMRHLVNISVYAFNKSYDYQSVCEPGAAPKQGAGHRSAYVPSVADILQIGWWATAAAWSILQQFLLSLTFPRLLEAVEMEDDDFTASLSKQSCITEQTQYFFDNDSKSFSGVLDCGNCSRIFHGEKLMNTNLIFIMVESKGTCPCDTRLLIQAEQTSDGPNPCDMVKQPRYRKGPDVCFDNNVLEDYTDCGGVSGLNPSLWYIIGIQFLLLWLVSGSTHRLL
T1 sequence (Q99720 whole entry): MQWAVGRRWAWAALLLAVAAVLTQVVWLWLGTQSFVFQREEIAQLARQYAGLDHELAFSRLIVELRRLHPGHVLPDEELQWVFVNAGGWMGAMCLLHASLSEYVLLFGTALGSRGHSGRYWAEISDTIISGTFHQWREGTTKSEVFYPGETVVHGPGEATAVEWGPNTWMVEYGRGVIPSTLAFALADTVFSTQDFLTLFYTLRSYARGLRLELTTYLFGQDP

Row | SMILES | Ki [1] | Ki [2]
1 | COc1cncc(-c2cc3nccc(C4CCCN(Cc5ccccc5)C4)n3n2)c1 (centres unmarked) [Example 31, 7-(1-Benzylpiperidin-3-yl)-2-(5-methoxypyridin-3-yl)pyrazolo[1,5-a]pyrimidine] | > 1000 nM | 0.5 to 5 µM
2 | COc1cc(-c2cc3nccc(C4CCCN(Cc5ccccc5)C4)n3n2)ccn1 (centres unmarked) [Example 32, 7-(1-Benzylpiperidin-3-yl)-2-(2-methoxypyridin-4-yl)pyrazolo[1,5-a]pyrimidine] | > 1000 nM | > 5 µM
3 | COc1cnccc1-c1cc2nccc(C3CCCN(Cc4ccccc4)C3)n2n1 (centres unmarked) [Example 33, 7-(1-Benzylpiperidin-3-yl)-2-(3-methoxypyridin-4-yl)pyrazolo[1,5-a]pyrimidine] | > 1000 nM | 0.5 to 5 µM
4 | COc1ccncc1-c1cc2nccc(C3CCCN(Cc4ccccc4)C3)n2n1 (centres unmarked) [Example 34, 7-(1-Benzylpiperidin-3-yl)-2-(4-methoxypyridin-3-yl)pyrazolo[1,5-a]pyrimidine] | > 1000 nM | 0.5 to 5 µM
5 | c1ccc(CN2CCCC(c3ccnc4c(-c5ccccc5)cnn34)C2)cc1 (centres unmarked) [Example 35, 7-(1-Benzylpiperidin-3-yl)-3-phenylpyrazolo[1,5-a]pyrimidine] | 500 to 1000 nM | > 5 µM
6 | c1ccc(CN2CCCC(c3ccnc4c(-c5ccncc5)cnn34)C2)cc1 (centres unmarked) [Example 36, 7-(1-Benzylpiperidin-3-yl)-3-(pyridin-4-yl)pyrazolo[1,5-a]pyrimidine] | 500 to 1000 nM | 0.5 to 5 µM
7 | c1ccc(CN2CCCC(c3ccnc4c(-c5cccnc5)cnn34)C2)cc1 (centres unmarked) [Example 37, 7-(1-Benzylpiperidin-3-yl)-3-(pyridin-3-yl)pyrazolo[1,5-a]pyrimidine] | > 1000 nM | 0.5 to 5 µM
8 | COc1cc(-c2cnn3c(C4CCCN(Cc5ccccc5)C4)ccnc23)ccn1 (centres unmarked) [Example 38, 7-(1-Benzylpiperidin-3-yl)-3-(2-methoxypyridin-4-yl)pyrazolo[1,5-a]pyrimidine] | > 1000 nM | 0.5 to 5 µM
9 | CCOc1ccc(-c2cnn3c(C4CCCN(Cc5ccccc5)C4)ccnc23)cc1 (centres unmarked) [Example 39, 7-(1-Benzylpiperidin-3-yl)-3-(4-ethoxyphenyl)pyrazolo[1,5-a]pyrimidine] | > 1000 nM | > 5 µM
10 | COc1ncccc1-c1cnn2c(C3CCCN(Cc4ccccc4)C3)ccnc12 (centres unmarked) [Example 40, 7-(1-Benzylpiperidin-3-yl)-3-(2-methoxypyridin-3-yl)pyrazolo[1,5-a]pyrimidine] | > 1000 nM | 0.5 to 5 µM
11 | Cc1nn2c(C3CCCN(Cc4ccccc4)C3)ccnc2c1-c1ccccc1F (centres unmarked) [Example 48, 7-(1-Benzylpiperidin-3-yl)-3-(2-fluorophenyl)-2-methylpyrazolo[1,5-a]pyrimidine] | > 1000 nM | > 5 µM
12 | Cc1nc(-c2cccc(-c3c(C)nn4c(C5CCCN(Cc6ccccc6)C5)ccnc34)c2)no1 (centres unmarked) [Example 55, 3-(3-(7-(1-Benzylpiperidin-3-yl)-2-methylpyrazolo[1,5-a]pyrimidin-3-yl)phenyl)-5-methyl-1,2,4-oxadiazole] | > 1000 nM | 0.5 to 5 µM
13 | Cc1nnc(-c2cccc(-c3c(C)nn4c(C5CCCN(Cc6ccccc6)C5)ccnc34)c2)o1 (centres unmarked) [Example 56, 2-(3-(7-(1-Benzylpiperidin-3-yl)-2-methylpyrazolo[1,5-a]pyrimidin-3-yl)phenyl)-5-methyl-1,3,4-oxadiazole] | > 1000 nM | 0.5 to 5 µM

The remaining lines, values ahead:

Row | Ki [1] | Ki [2] | SMILES
14 | > 1000 nM | 0.5 to 5 µM | Cc1cnc2c(-c3ccncc3)cnn2c1C1CCCN(Cc2ccccc2)C1 (centres unmarked) [Example 41, 7-(1-Benzylpiperidin-3-yl)-6-methyl-3-(pyridin-4-yl)pyrazolo[1,5-a]pyrimidine]
15 | > 1000 nM | 0.5 to 5 µM | Cc1nn2c(C3CCCN(Cc4ccccc4)C3)ccnc2c1-c1ccncc1 (centres unmarked) [Example 42, 7-(1-Benzylpiperidin-3-yl)-2-methyl-3-(pyridin-4-yl)pyrazolo[1,5-a]pyrimidine]
16 | > 1000 nM | 0.5 to 5 µM | COc1ncccc1-c1c(C)nn2c(C3CCCN(Cc4ccccc4)C3)ccnc12 (centres unmarked) [Example 43, 7-(1-Benzylpiperidin-3-yl)-3-(2-methoxypyridin-3-yl)-2-methylpyrazolo[1,5-a]pyrimidine]
17 | > 1000 nM | > 5 µM | Cc1nn2c(C3CCCN(Cc4ccccc4)C3)ccnc2c1-c1ccccc1 (centres unmarked) [Example 44, 7-(1-Benzylpiperidin-3-yl)-2-methyl-3-phenylpyrazolo[1,5-a]pyrimidine]
18 | 500 to 1000 nM | > 5 µM | CCOc1ccc(-c2c(C)nn3c(C4CCCN(Cc5ccccc5)C4)ccnc23)cc1 (centres unmarked) [Example 45, 7-(1-Benzylpiperidin-3-yl)-3-(4-ethoxyphenyl)-2-methylpyrazolo[1,5-a]pyrimidine]
19 | > 1000 nM | 0.5 to 5 µM | COc1cc(-c2c(C)nn3c(C4CCCN(Cc5ccccc5)C4)ccnc23)ccn1 (centres unmarked) [Example 46, 7-(1-Benzylpiperidin-3-yl)-3-(2-methoxypyridin-4-yl)-2-methylpyrazolo[1,5-a]pyrimidine]
20 | > 1000 nM | > 5 µM | Cc1nn2c(C3CCCN(Cc4ccccc4)C3)ccnc2c1-c1ccc(N(C)C)cc1 (centres unmarked) [Example 47, 4-(7-(1-Benzylpiperidin-3-yl)-2-methylpyrazolo[1,5-a]pyrimidin-3-yl)-N,N-dimethylaniline]
21 | > 1000 nM | > 5 µM | Cc1cnccc1-c1c(C)nn2c(C3CCCN(Cc4ccccc4)C3)ccnc12 (centres unmarked) [Example 49, 7-(1-Benzylpiperidin-3-yl)-2-methyl-3-(3-methylpyridin-4-yl)pyrazolo[1,5-a]pyrimidine]
22 | > 1000 nM | 0.5 to 5 µM | Cc1nn2c(C3CCCN(Cc4ccccc4)C3)ccnc2c1-c1ccnc(F)c1 (centres unmarked) [Example 50, 7-(1-Benzylpiperidin-3-yl)-3-(2-fluoropyridin-4-yl)-2-methylpyrazolo[1,5-a]pyrimidine]
23 | 500 to 1000 nM | 0.5 to 5 µM | Cc1cc(-c2c(C)nn3c(C4CCCN(Cc5ccccc5)C4)ccnc23)ccn1 (centres unmarked) [Example 51, 7-(1-Benzylpiperidin-3-yl)-2-methyl-3-(2-methylpyridin-4-yl)pyrazolo[1,5-a]pyrimidine]
24 | > 1000 nM | 0.5 to 5 µM | Cc1nn2c(C3CCCN(Cc4ccccc4)C3)ccnc2c1-c1ccncc1F (centres unmarked) [Example 52, 7-(1-Benzylpiperidin-3-yl)-3-(3-fluoropyridin-4-yl)-2-methylpyrazolo[1,5-a]pyrimidine]
25 | > 1000 nM | 0.5 to 5 µM | Cc1nn2c(C3CCCN(Cc4ccccc4)C3)ccnc2c1-c1ccnc(C(F)(F)F)c1 (centres unmarked) [Example 53, 7-(1-Benzylpiperidin-3-yl)-2-methyl-3-(2-(trifluoromethyl)pyridin-4-yl)pyrazolo[1,5-a]pyrimidine]
26 | > 1000 nM | 0.5 to 5 µM | CCc1cc(-c2c(C)nn3c(C4CCCN(Cc5ccccc5)C4)ccnc23)ccn1 (centres unmarked) [Example 54, 7-(1-Benzylpiperidin-3-yl)-3-(2-ethylpyridin-4-yl)-2-methylpyrazolo[1,5-a]pyrimidine]
27 | > 1000 nM | 0.5 to 5 µM | COc1cnccc1-c1c(C)nn2c(C3CCCN(Cc4ccccc4)C3)ccnc12 (centres unmarked) [Example 57, 7-(1-Benzylpiperidin-3-yl)-3-(3-methoxypyridin-4-yl)-2-methylpyrazolo[1,5-a]pyrimidine]
28 | > 1000 nM | 0.5 to 5 µM | Cc1cnc2c(-c3ccncc3)c(C)nn2c1C1CCCN(Cc2ccccc2)C1 (centres unmarked) [Example 58, 7-(1-Benzylpiperidin-3-yl)-2,6-dimethyl-3-(pyridin-4-yl)pyrazolo[1,5-a]pyrimidine]

Source: US12617797B2, “Substituted pyrazolo [1,5-a]pyrimidines having multimodal activity against pain” (ESTEVE PHARMACEUTICALS, S.A., priority 2020, dated 2026)
